System: soils B-E
Assay: soil incubation, N2O production in soils B-E
Procedure: Soil incubations were performed in three replicates. Each sample consisted of 6 g of sieved soil (2 mm). The soil was air-dried after collection and pre-incubated prior to the experiment for seven days at 50% water holding capacity (WHC). The soil was transferred to a gas chromatography vial (22 mL volume, clear glass, Macherey-Nagel, Germany) and compacted densely to allow 5.5-6.2 cm headspace. The soil in the vials was incubated for a total of 21 days at a constant temperature of 21° C. with an open lid to ensure gas circulation. The control incubations contained ‘untreated’ soil (deionized H2O only) and ‘fertiliser only’ soil ((NH4)2SO4; 50 mg kg^−1 soil) and accompanied each measurement. (NH4)2SO4 was applied as an aqueous solution ([…]) and introduced on the soil surface to mimic field conditions. Three inhibitor solutions were prepared from DMP and 4-MPT at concentrations of 0.5 mol %, 2.5 mol % and 5 mol % of applied fertiliser-N and applied on the soil surface. The soils reached 60% WHC after the treatments had been applied and were kept at that moisture level by periodically adding deionized water to compensate for evaporation losses. At the day of measurement (day 1, 3, 5, 7, 14 and 21 after fertilization) the vials were closed gas-tight with a rubber septum and aluminium lid and opened again after each measurement. The N2O emission was analysed using a gas chromatograph equipped with an electron capture detector and flame ionization detector (GC-ECD/FID; Clarus 580, Perkin Elmer). A linear regression slope was used to calculate N2O—N production rates, F, according to eqn. 5:
where ΔC/Δt represents the change of the N2O concentration over the time interval t in ppbv, V represents the headspace volume in L, M represents the molar mass of N in N2O, m represents the amount of soil in g dry weight, Vm represents the molar volume of ideal gases (22.414 L mol^−1) at 0° C. and 101.325 kPa, corrected for the gas sampler using T0 (273.15 K) and Ta (air temperature in K).

Cc1c[nH]nc1C [DMP, 3,4-dimethylpyrazole, reference compound]
N2O production (Soil B, 0.5 mol %, Day 1): 0.318 ± 0.030 μg g^−1 soil h^−1
N2O production (Soil B, 0.5 mol %, Day 3): 0.189 ± 0.006 μg g^−1 soil h^−1
N2O production (Soil B, 0.5 mol %, Day 5): 0.151 ± 0.015 μg g^−1 soil h^−1
N2O production (Soil B, 0.5 mol %, Day 7): 0.086 ± 0.043 μg g^−1 soil h^−1
N2O production (Soil B, 0.5 mol %, Day 14): 0.136 ± 0.006 μg g^−1 soil h^−1
N2O production (Soil B, 0.5 mol %, Day 21): 0.019 ± 0.019 μg g^−1 soil h^−1
N2O production (Soil B, 2.5 mol %, Day 1): 0.224 ± 0.013 μg g^−1 soil h^−1
N2O production (Soil B, 2.5 mol %, Day 3): 0.124 ± 0.008 μg g^−1 soil h^−1
N2O production (Soil B, 2.5 mol %, Day 5): 0.060 ± 0.030 μg g^−1 soil h^−1
N2O production (Soil B, 2.5 mol %, Day 7): 0.045 ± 0.023 μg g^−1 soil h^−1
N2O production (Soil B, 2.5 mol %, Day 14): 0.113 ± 0.006 μg g^−1 soil h^−1
N2O production (Soil B, 2.5 mol %, Day 21): 0.127 ± 0.000 μg g^−1 soil h^−1
N2O production (Soil B, 5 mol %, Day 1): 0.209 ± 0.054 μg g^−1 soil h^−1
N2O production (Soil B, 5 mol %, Day 3): 0.067 ± 0.017 μg g^−1 soil h^−1
N2O production (Soil B, 5 mol %, Day 5): 0.058 ± 0.014 μg g^−1 soil h^−1
N2O production (Soil B, 5 mol %, Day 7): 0.020 ± 0.010 μg g^−1 soil h^−1
N2O production (Soil B, 5 mol %, Day 14): 0.052 ± 0.003 μg g^−1 soil h^−1
N2O production (Soil B, 5 mol %, Day 21): 0.037 ± 0.019 μg g^−1 soil h^−1
N2O production (Soil C, 0.5 mol %, Day 1): 0.283 ± 0.008 μg g^−1 soil h^−1
N2O production (Soil C, 0.5 mol %, Day 3): 0.183 ± 0.003 μg g^−1 soil h^−1
N2O production (Soil C, 0.5 mol %, Day 5): 0.081 ± 0.041 μg g^−1 soil h^−1
N2O production (Soil C, 0.5 mol %, Day 7): 0.162 ± 0.037 μg g^−1 soil h^−1
N2O production (Soil C, 0.5 mol %, Day 14): 0.105 ± 0.007 μg g^−1 soil h^−1
N2O production (Soil C, 0.5 mol %, Day 21): 0.101 ± 0.011 μg g^−1 soil h^−1
N2O production (Soil C, 2.5 mol %, Day 1): 0.276 ± 0.006 μg g^−1 soil h^−1
N2O production (Soil C, 2.5 mol %, Day 3): 0.161 ± 0.006 μg g^−1 soil h^−1
N2O production (Soil C, 2.5 mol %, Day 5): 0.133 ± 0.006 μg g^−1 soil h^−1
N2O production (Soil C, 2.5 mol %, Day 7): 0.113 ± 0.005 μg g^−1 soil h^−1
N2O production (Soil C, 2.5 mol %, Day 14): 0.086 ± 0.006 μg g^−1 soil h^−1
N2O production (Soil C, 2.5 mol %, Day 21): 0.089 ± 0.005 μg g^−1 soil h^−1
N2O production (Soil C, 5 mol %, Day 1): 0.228 ± 0.017 μg g^−1 soil h^−1
N2O production (Soil C, 5 mol %, Day 3): 0.125 ± 0.006 μg g^−1 soil h^−1
N2O production (Soil C, 5 mol %, Day 5): 0.099 ± 0.008 μg g^−1 soil h^−1
N2O production (Soil C, 5 mol %, Day 7): 0.098 ± 0.010 μg g^−1 soil h^−1
N2O production (Soil C, 5 mol %, Day 14): 0.085 ± 0.009 μg g^−1 soil h^−1
N2O production (Soil C, 5 mol %, Day 21): 0.095 ± 0.000 μg g^−1 soil h^−1
N2O production (Soil D, 0.5 mol %, Day 1): 0.131 ± 0.001 μg g^−1 soil h^−1
N2O production (Soil D, 0.5 mol %, Day 3): 0.133 ± 0.003 μg g^−1 soil h^−1
N2O production (Soil D, 0.5 mol %, Day 5): 0.063 ± 0.003 μg g^−1 soil h^−1
N2O production (Soil D, 0.5 mol %, Day 7): 0.112 ± 0.008 μg g^−1 soil h^−1
N2O production (Soil D, 0.5 mol %, Day 14): 0.072 ± 0.009 μg g^−1 soil h^−1
N2O production (Soil D, 0.5 mol %, Day 21): 0.098 ± 0.011 μg g^−1 soil h^−1
N2O production (Soil D, 2.5 mol %, Day 1): 0.073 ± 0.037 μg g^−1 soil h^−1
N2O production (Soil D, 2.5 mol %, Day 3): 0.120 ± 0.005 μg g^−1 soil h^−1
N2O production (Soil D, 2.5 mol %, Day 5): 0.067 ± 0.006 μg g^−1 soil h^−1
N2O production (Soil D, 2.5 mol %, Day 7): 0.115 ± 0.012 μg g^−1 soil h^−1
N2O production (Soil D, 2.5 mol %, Day 14): 0.070 ± 0.006 μg g^−1 soil h^−1
N2O production (Soil D, 2.5 mol %, Day 21): 0.063 ± 0.003 μg g^−1 soil h^−1
N2O production (Soil D, 5 mol %, Day 1): 0.114 ± 0.015 μg g^−1 soil h^−1
N2O production (Soil D, 5 mol %, Day 3): 0.112 ± 0.006 μg g^−1 soil h^−1
N2O production (Soil D, 5 mol %, Day 5): 0.039 ± 0.021 μg g^−1 soil h^−1
N2O production (Soil D, 5 mol %, Day 7): 0.102 ± 0.014 μg g^−1 soil h^−1
N2O production (Soil D, 5 mol %, Day 14): 0.056 ± 0.004 μg g^−1 soil h^−1
N2O production (Soil D, 5 mol %, Day 21): 0.069 ± 0.007 μg g^−1 soil h^−1
N2O production (Soil E, 0.5 mol %, Day 1): 0.053 ± 0.002 μg g^−1 soil h^−1
N2O production (Soil E, 0.5 mol %, Day 3): 0.037 ± 0.006 μg g^−1 soil h^−1
N2O production (Soil E, 0.5 mol %, Day 5): 0.015 ± 0.008 μg g^−1 soil h^−1
N2O production (Soil E, 0.5 mol %, Day 7): 0.000 ± 0.000 μg g^−1 soil h^−1
N2O production (Soil E, 0.5 mol %, Day 14): 0.000 ± 0.000 μg g^−1 soil h^−1
N2O production (Soil E, 0.5 mol %, Day 21): 0.000 ± 0.000 μg g^−1 soil h^−1
N2O production (Soil E, 2.5 mol %, Day 1): 0.080 ± 0.009 μg g^−1 soil h^−1
N2O production (Soil E, 2.5 mol %, Day 3): 0.014 ± 0.014 μg g^−1 soil h^−1
N2O production (Soil E, 2.5 mol %, Day 5): 0.000 ± 0.000 μg g^−1 soil h^−1
N2O production (Soil E, 2.5 mol %, Day 7): 0.000 ± 0.000 μg g^−1 soil h^−1
N2O production (Soil E, 2.5 mol %, Day 14): 0.008 ± 0.008 μg g^−1 soil h^−1
N2O production (Soil E, 2.5 mol %, Day 21): 0.000 ± 0.000 μg g^−1 soil h^−1
N2O production (Soil E, 5 mol %, Day 1): 0.045 ± 0.011 μg g^−1 soil h^−1
N2O production (Soil E, 5 mol %, Day 3): 0.011 ± 0.011 μg g^−1 soil h^−1
N2O production (Soil E, 5 mol %, Day 5): 0.000 ± 0.000 μg g^−1 soil h^−1
N2O production (Soil E, 5 mol %, Day 7): 0.000 ± 0.000 μg g^−1 soil h^−1
N2O production (Soil E, 5 mol %, Day 14): 0.007 ± 0.007 μg g^−1 soil h^−1
N2O production (Soil E, 5 mol %, Day 21): 0.000 ± 0.000 μg g^−1 soil h^−1
N2O production rate (soil B, 0.5 mol % (lowest application rate), day 1): 0.32 ng g^−1 soil h^−1
N2O production rate relative to the uninhibited soil (soil B, 0.5 mol %, day 1): approximately 50%
N2O production rate relative to that in the absence of the inhibitor (soil B, 2.5 mol %): approximately 67%
N2O production rate relative to that in the absence of the inhibitor (soil B, 5 mol %): approximately 67%
N2O formation rate compared to the uninhibited soil (soil C, 0.5 mol % and 2.5 mol %, first two weeks (P>0.05)): did not show a significantly reduced N2O formation rate
N2O production rate (soil C, highest application rate (5 mol %), day 21): 0.095 ng g^−1 soil h^−1
N2O production rates compared to the uninhibited soil (soil D (P>0.05)): No significant difference
N2O production beyond day 5 (soil E, 5 mol %): no N2O production was detected

Reference: patent US20260215425A1, “NITRIFICATION INHIBITORS” (The University of Melbourne, priority 2022, published 2026)
